Test: xn = mol fraction of the nth substance listed
Settings: Liquid, Vibrating tube method

CCCCCCCC [octane] + CCCO
Settings	mass density [kg/m3]
313.15 K, 15010 kPa, x2 = 0.8823	776.2
313.15 K, 15020 kPa, x2 = 0.1631	706.63
313.15 K, 16000 kPa, x2 = 0.1631	707.41
313.15 K, 16010 kPa, x2 = 0.4411	725.31
313.15 K, 16010 kPa, x2 = 0.7301	754.27
313.15 K, 16010 kPa, x2 = 0.8823	776.98
313.15 K, 16020 kPa, x2 = 0.2111	710.08
313.15 K, 16020 kPa, x2 = 0.3158	716.32
313.15 K, 17000 kPa, x2 = 0.8823	777.78
313.15 K, 17020 kPa, x2 = 0.1631	708.23
313.15 K, 17020 kPa, x2 = 0.2111	710.85
313.15 K, 17020 kPa, x2 = 0.3158	717.13
313.15 K, 17020 kPa, x2 = 0.4411	726.11
313.15 K, 17020 kPa, x2 = 0.7301	755.05
313.15 K, 18000 kPa, x2 = 0.1631	709.02
313.15 K, 18000 kPa, x2 = 0.4411	726.91
313.15 K, 18010 kPa, x2 = 0.2111	711.64
313.15 K, 18010 kPa, x2 = 0.3158	717.91
313.15 K, 18010 kPa, x2 = 0.8823	778.53
313.15 K, 18020 kPa, x2 = 0.7301	755.85
313.15 K, 19000 kPa, x2 = 0.3158	718.69
313.15 K, 19000 kPa, x2 = 0.7301	756.62
313.15 K, 19010 kPa, x2 = 0.2111	712.43
313.15 K, 19010 kPa, x2 = 0.4411	727.68
313.15 K, 19010 kPa, x2 = 0.8823	779.29
313.15 K, 19020 kPa, x2 = 0.1631	709.81
313.15 K, 20000 kPa, x2 = 0.2111	713.22
313.15 K, 20000 kPa, x2 = 0.4411	728.45
313.15 K, 20010 kPa, x2 = 0.1631	710.59
313.15 K, 20010 kPa, x2 = 0.3158	719.47
313.15 K, 20010 kPa, x2 = 0.7301	757.39
313.15 K, 20020 kPa, x2 = 0.8823	780.06
323.15 K, 100 kPa, x2 = 0.1631	684.56
323.15 K, 100 kPa, x2 = 0.2111	687.03
323.15 K, 100 kPa, x2 = 0.3158	693.22
323.15 K, 100 kPa, x2 = 0.4411	702.44
323.15 K, 100 kPa, x2 = 0.7301	731.25
323.15 K, 100 kPa, x2 = 0.8823	754.72
323.15 K, 1000 kPa, x2 = 0.8823	755.36
323.15 K, 1010 kPa, x2 = 0.3158	694.15
323.15 K, 1010 kPa, x2 = 0.4411	703
323.15 K, 1010 kPa, x2 = 0.7301	732.1
323.15 K, 1020 kPa, x2 = 0.1631	685.52
323.15 K, 1020 kPa, x2 = 0.2111	688.02
323.15 K, 2000 kPa, x2 = 0.4411	703.99
323.15 K, 2010 kPa, x2 = 0.1631	686.54
323.15 K, 2010 kPa, x2 = 0.2111	689.01
323.15 K, 2010 kPa, x2 = 0.3158	695.16
323.15 K, 2010 kPa, x2 = 0.7301	733.06
323.15 K, 2020 kPa, x2 = 0.8823	756.3
323.15 K, 3000 kPa, x2 = 0.4411	704.97
323.15 K, 3010 kPa, x2 = 0.3158	696.14
323.15 K, 3010 kPa, x2 = 0.7301	734.04
323.15 K, 3010 kPa, x2 = 0.8823	757.26
323.15 K, 3020 kPa, x2 = 0.1631	687.52
323.15 K, 3020 kPa, x2 = 0.2111	690
323.15 K, 4010 kPa, x2 = 0.7301	734.99
323.15 K, 4010 kPa, x2 = 0.8823	758.2
323.15 K, 4020 kPa, x2 = 0.1631	688.52
323.15 K, 4020 kPa, x2 = 0.2111	691
323.15 K, 4020 kPa, x2 = 0.3158	697.11
323.15 K, 4020 kPa, x2 = 0.4411	705.97
323.15 K, 5010 kPa, x2 = 0.1631	689.5
323.15 K, 5010 kPa, x2 = 0.7301	735.97
323.15 K, 5020 kPa, x2 = 0.2111	691.96
323.15 K, 5020 kPa, x2 = 0.3158	698.1
323.15 K, 5020 kPa, x2 = 0.4411	706.95
323.15 K, 5020 kPa, x2 = 0.8823	759.13
323.15 K, 6000 kPa, x2 = 0.7301	736.92
323.15 K, 6010 kPa, x2 = 0.1631	690.43
323.15 K, 6010 kPa, x2 = 0.2111	692.93
323.15 K, 6010 kPa, x2 = 0.4411	707.91
323.15 K, 6010 kPa, x2 = 0.8823	760.04
323.15 K, 6020 kPa, x2 = 0.3158	699.06
323.15 K, 7000 kPa, x2 = 0.1631	691.4
323.15 K, 7010 kPa, x2 = 0.2111	693.87
323.15 K, 7010 kPa, x2 = 0.4411	708.85
323.15 K, 7010 kPa, x2 = 0.7301	737.85
323.15 K, 7020 kPa, x2 = 0.3158	700.03
323.15 K, 7020 kPa, x2 = 0.8823	760.95
323.15 K, 8000 kPa, x2 = 0.1631	692.37
323.15 K, 8010 kPa, x2 = 0.3158	700.95
323.15 K, 8010 kPa, x2 = 0.4411	709.8
323.15 K, 8010 kPa, x2 = 0.7301	738.79
323.15 K, 8010 kPa, x2 = 0.8823	761.85
323.15 K, 8020 kPa, x2 = 0.2111	694.84
323.15 K, 9000 kPa, x2 = 0.7301	739.71
323.15 K, 9010 kPa, x2 = 0.4411	710.74
323.15 K, 9010 kPa, x2 = 0.8823	762.75
323.15 K, 9020 kPa, x2 = 0.1631	693.29
323.15 K, 9020 kPa, x2 = 0.2111	695.78
323.15 K, 9020 kPa, x2 = 0.3158	701.92
323.15 K, 10000 kPa, x2 = 0.1631	694.22
323.15 K, 10000 kPa, x2 = 0.7301	740.61
323.15 K, 10010 kPa, x2 = 0.2111	696.69
